Source: US9492428B2, “Compounds, compositions, pharmaceutical compositions, and methods of use” (University of Louisville Research Foundation, Inc., priority 2011, dated 2016)
Converted amounts (≈) assume the structure as drawn.

What was measured:
RWPE-1 cells = assay: MTT assay (cytotoxicity) in RWPE-1; format: cell-based; settings: Homo sapiens, FIG. 4, read-out: GI50 against RWPE-1
Excerpt: FIG. 4. Bioassay of compound I-1, compound I-2, and compound I-3. SPA14-3-2 is pure compound I-2. SPA14-3-3 is pure compound I-3. SPA14-3-4 is pure compound I-1. MTT assays using compound I-1, compound I-2, and compound I-3 against DU145 and RWPE-1 cells lines.
Isolation, NMR, and X-ray crystallographic analyses. Leaves, stems, and few fruits of Physalis angulate L (Solanaceae) were collected in Rio Domingusa. Kuith/Barranquita, Amazonas Department, Northeastern Peru, and identified by the team led by Walter Lewis (collection voucher 18597, Ext. 1159). Dried and grounded material (46 g) was extracted with ethanol (1 L, 95%) for 7 days. The evaporated crude extract (6.26 g) was denoted SPA. An aliquot (1.5 g) of SPA was partitioned between dichloromethane (40 mL) and water (40 mL), affording two fractions: organic (SPA1, 500 mg) and aqueous (SPA2, 600 mg). All MTT assays were performed as described in Bates et al. “G-Rich Oligonucleotides for Cancer Treatment” Chapter 21 of Methods in Molecular Biology, Gene Therapy of Cancer, Wolfgang Walther and Ulrike S. Stein (eds.), Vol. 542, 2009, Humana Press. […] SPA14-3 (30 mg) was treated on an HPLC using a reverse phase C18 column eluted in gradient mode of methanol and water (from 80% methanol to 100% methanol) and detected at 254 nm, yielding SPA14-3-1 (0 mg), SPA14-3-2 (1.2 mg of pure compound I-2), SPA14-3-3 (4.1 mg of pure compound I-3), and SPA14-3-4 (18 mg of pure compound I-1).
General Experimental Procedure. Compound I-1 was isolated as described in Example Set 1, above. For samples of compound I-1 used in Example Set 2, HPLC and NMR indicated a purity of at least 95%. All experiments described in Example Set 2 were repeated at least two or three times. All MTT assays were performed according to Bates et al. “G-Rich Oligonucleotides for Cancer Treatment” Chapter 21 of Methods in Molecular Biology, Gene Therapy of Cancer, Wolfgang Walther and Ulrike S. Stein (eds.), Vol. 542, 2009, Humana Press.

[1] = tested on: PC3 prostate cancer cells; assay: MTT cell proliferation assay in PC3; format: cell-based, human; settings: after three days of treatment
Procedure: FIG. 8. Cell proliferation assay. (A) DU145 or PC3 prostate cancer were plated at a density of 1,500 cells per well in 96-well plates and incubated 18 hours at 37° C. to allow adherence. They were untreated or treated by addition of different concentrations of compound I-1 (which were added directly to the medium) or vehicle (DMSO), and proliferation was measured using a 3-(4,5-dimethylthiazol-2-yl)-2,5-diphenyltetrazolium bromide MTT assay after 3 days of treatment. Points, mean of triplicate normalized samples to vehicle sample; bars, SE. (B) GI50 after 3 days of treatment. (C) Prostate cancer cells (DU145 or PC3) or a non-malignant epithelial cells (RWPE-1) were plated at a density of 1,000 cells per well in 96-well plates and incubated 18 hours at 37° C. to allow adherence. They were untreated or treated by addition of different concentrations of compound I-1 (added directly to the medium) or vehicle (DMSO), and proliferation was by MTT assay after 5 days of treatment. Points, mean of triplicate normalized samples to vehicle sample; bars, SE.
General Experimental Procedure. Compound I-1 was isolated as described in Example Set 1, above. For samples of compound I-1 used in Example Set 2, HPLC and NMR indicated a purity of at least 95%. All experiments described in Example Set 2 were repeated at least two or three times. […]

PC3 cells = assay: Immunoblotting of apoptotic markers (cleaved caspase-3, PARP-1) in PC3; format: cell-based, human; settings: 10 μM, FIG. 11B
Procedure: FIG. 11. Compound I-1 induces cell cycle arrest and apoptosis in PC3 cells. Prostate cancer cells were left untreated (−) or treated with compound I-1 (10 μM) or with vehicle (DMSO) for the time indicated in the figure. (A) For flow cytometric analysis of cell cycle parameters, cells were fixed, and stained with propidium iodide. Each histogram indicates the percent of cells in G1, S, and G2/M phases of the cell cycle. Data were gated to exclude apoptotic cells for these calculations. (B) After treatment, cells were lysed and total lysates were analyzed for cellular apoptotic markers by immunoblotting using anti-PARP-1 or anti-cleaved Caspase-3 antibodies. Anti-GAPDH-1 antibody was used as loading control. (C) Some 48 h-treated PC3 cells were harvest by trypsinization, washed with PBS, and total DNA was extracted then analyzed on a 1.8% agarose gel. M indicates DNA size marker (base pairs).
Cell Culture and Treatment. All cells were obtained from ATCC and were grown in a humidified incubator at 37° C. with 5% CO2. […] All protein concentrations were determined using the bicinchoninic acid (BCA) protein assay (Pierce, Rockford, Ill.).
Immunoblotting. […] Antibody-reactive proteins were detected using a chemiluminescence substrate (SuperSignal; Pierce, Rockford, Ill.) according to the manufacturer's instructions. […]

**Q.** With `C[C@@H]1CC[C@H]2C3C(O[C@]4([C@]5(O)CC6(C)C(=O)OC5C[C@@]6(C)O)CC[C@@]31O4)[C@H]1O[C@]13CC=CC(=O)[C@]23C` (stereo partly shown) [I-1] as the molecule, how does the GI50 (RWPE-1 cells) read?
**A.** The GI50 was roughly 1.2 µg/mL (≈ 2.4 µM).

**Q.** What about the “concentration of maximum antiproliferative activity” value [1] of the same molecule?
**A.** The value was 10 µM.

**Q.** And the “activation of caspase-3” value (PC3 cells)?
**A.** Its value is “able to induce”.

**Q.** What about the “cleavage of PARP-1” value (PC3 cells) of the same molecule?
**A.** Its value is “able to induce”.
